Assay [1] has as its system MM1R myeloma target cells. The experiment in a line: PBMC-mediated MM1R target cell killing, second experiment (PBMC pretreated 5 days, 0.5 μM pomalidomide). The format is cell-based. The settings on record: PBMC:MM1R 10:1, overnight, with or without 0.5 μM pomalidomide. Here is the method:
(§1) Experiments were performed to test whether SEA-BCMA combines effectively with pomalidomide in vitro by combining PBMC effector cells with MM1R target cells treated with both pomalidomide and SEA-BCMA or antibody controls. The first experiment (FIG. 12A) benchmarks against MM standard of care elotuzumab and nonfucosylated parent BCMA antibody. The second experiment (FIG. 12B) benchmarks against MM standard of care daratumumab. MM1R target cells express 15,000 copies of BCMA, 12,000 copies of CS1 (elotuzumab target), and 36,000 copies of CD38 (daratumumab target).
In the second experiment (FIG. 12B), normal donor PBMCs of the FcγRIII V/F genotype were treated with or without 0.5 μM pomalidomide (APEx Bio, cat #A4211) for 5 days. The resulting PBMCs were then washed and mixed with CFSE (Invitrogen cat #V12883) labeled MM1R myeloma target cells at an effector-to-target cell ratio of 10:1. The mixture was then treated with a dose range of the following antibodies: SEA-BCMA, daratumumab, or non-binding hIgG1k antibody control (Sigma cat #15154) with or without 0.5 μM pomalidomide (APEx Bio, cat #A4211) and incubated overnight. Percentage live MM1R cells were then determined using the viability dye 7-AAD (BD Biosciences, cat #559925) by flow cytometry.

Assay [2] deals with NCI-H929 cells. The experiment in a line: BCMA expression by flow cytometry after GSI incubation, NCI-H929. The class given is cell-based. The following applies: NCI-H929, 1 μM DAPT for 24 hrs vs untreated.
The subject of assay [3] is Molp-8 cells. The experiment in a line: BCMA expression by flow cytometry after GSI incubation, Molp-8. The format is cell-based.
Assay [4] deals with FcγRIII. The experiment in a line: FcγRIII signaling ADCC reporter bioassay, NCI-H929 target cells. The format is cell-based. The settings on record: NCI-H929 bound with antibody dose titrations, +/- DAPT, CD16A-Jurkat effector cells 6:1. As to the method:
(§2) NCI-H929 or Molp-8 MM target cells were incubated with and without 1 μM DAPT for 24 hrs. […] FcγRIII signaling was determined using a surrogate assay as manufacturer describes (Promega ADCC reporter bioassay cat #G9302). Cells were bound with antibody dose titrations+/−GSI for 30 minutes at 37° C. CD16A-Jurkat effector cells were then added with a 6:1 effector-to-target cell ratio. After an overnight incubation, the assay was developed with Bio-Glo and relative luminescence units (RLU) were measured on an Envision plate reader. […] Enhanced signaling is the first step in the primary mechanism of action of SEA-BCMA. This signaling can translate to increased anti-MM cell lysis through ADCC.

For assay [5], the system named is FcγRIII. The experiment in a line: FcγRIII signaling ADCC reporter bioassay, Molp-8 target cells. The settings on record: Molp-8 bound with antibody dose titrations, +/- DAPT, CD16A-Jurkat effector cells 6:1. The class given is cell-based. Here is the method:
as §2

In assay [6] the test system is U266. Put plainly: BCMA expression by flow cytometry after Nirogacestat, U266. The following applies: U266, after incubation with Nirogacestat (FIG. 9A). The class given is cell-based.
The subject of assay [7] is NF-κB p65. The experiment in a line: NF-κB p65 activity ELISA on nuclear extract. The format is cell-based. The following applies: NCI-H929, serum-starved, 0.2 μM Nirogacestat 16 hrs, +/- 1 μg/ml APRIL. Here is the method: The secondary mechanism of action of SEA-BCMA is to block BCMA proliferative cell signaling. Increased BCMA from GSI treatment is expected to induce increased BCMA signaling. Therefore, the block of this enhanced signaling by SEA-BCMA was tested. BCMA-expressing NCI-H929 cells were serum-starved with and without 0.2 μM Nirogacestat (purchased from SelleckChem) for 16 hrs. Cells were then bound with and without 20 μg/mL SEA-BCMA and incubated with and without 1 μg/ml recombinant human APRIL (R&D Systems) for 20 minutes at 37° C. in the presence or absence of 0.2 μM Nirogacestat. 1 μg of nuclear extract was assayed in duplicate for NF-κB p65 activity by ELISA (TransAM NFκB Chemi p65, Active Motif).

The test system of assay [8] is MM1R myeloma target cells. The experiment in a line: PBMC-mediated MM1R target cell killing, first experiment (48 hrs, 3 μM pomalidomide). The format is cell-based. The settings on record: PBMC:MM1R 10:1, 48 hrs, with or without 3 μM pomalidomide. Here is the method:
as §1
In the first experiment (FIG. 12A), normal donor PBMCs of the FcγRIII V/F genotype were mixed with CFSE (Invitrogen cat #V12883) labeled MM1R myeloma target cells at an effector-to-target cell ratio of 10:1. The mixture was treated with a dose range of the following antibodies: SEA-BCMA, elotuzumab, WT-BCMA (fucosylated parent Ab), or non-binding hIgG1k antibody control (Sigma cat #15154) with or without 3 μM pomalidomide (APEx Bio, cat #A4211). After 48 hrs, the % live MM1R cells were then determined using the viability dye 7-AAD (BD Biosciences, cat #559925) by flow cytometry.

The target of assay [9] is T1, human BCMA (B-cell maturation antigen) (human, UniProt Q02223 1-184).
T1 construct: Endogenous BCMA on MM1R and NCI-H929 cell lines and on patients' multiple myeloma cells; also called membrane BCMA; cell-surface BCMA
T1 sequence: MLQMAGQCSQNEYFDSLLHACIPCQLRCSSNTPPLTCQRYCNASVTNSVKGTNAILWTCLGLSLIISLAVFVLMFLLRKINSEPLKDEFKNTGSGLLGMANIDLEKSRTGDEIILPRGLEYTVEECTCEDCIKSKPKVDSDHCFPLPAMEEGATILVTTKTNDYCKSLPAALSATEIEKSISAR
Put plainly: in vitro cell binding capacity assay, flow cytometry on MM1R cells.

Assay [10] has as its target T1, human BCMA (B-cell maturation antigen). Put plainly: flow cytometry on MM cells from bone marrow aspirates.

As to “Daratumumab: anti-CD38 antibody, MM standard of care [reference compound]”, in [1], the “MM1R target cell killing (percentage live MM1R cells)” value is “less activity than SEA-BCMA”. On to `C[C@H](NC(=O)Cc1cc(F)cc(F)c1)C(=O)N[C@H](C(=O)OC(C)(C)C)c1ccccc1` [DAPT], for which the BCMA expression result is on record as “increased BCMA expression” in assay [2] and “increased BCMA expression” in [3] (Molp-8, 1 μM DAPT for 24 hrs vs untreated). For the same molecule, the FcγRIII signaling entry in assay [4] and in assay [5] was “increased FcγRIII signaling” in each case. `CCC[C@H](N[C@H]1CCc2cc(F)cc(F)c2C1)C(=O)Nc1cn(C(C)(C)CNCC(C)(C)C)cn1` [Nirogacestat]: the BCMA expression result is “increased BCMA expression” in [3] (Molp-8, Nirogacestat treated vs untreated (FIG. 9A legend)) and “increased BCMA expression” in assay [6]. Besides, the “NF-κB signaling (p65 activity, RLU)” value in assay [7] is “increased NF-κB signaling”.

On to “Elotuzumab: MM standard of care antibody; target CS1 [reference compound]”, for which the “MM1R target cell killing (% live MM1R cells)” value in assay [8] was “no impact on cells unless pomalidomide was added”.

B1: SEA-BCMA (antibody, human IgG1, kappa, V domains shown)
VH: QVQLVQSGAEVKKPGASVKLSCKASGYTFTDYYIHWVRQAPGQGLEWIGYINPNSGYTNYAQKFQGRATMTADKSINTAYVELSRLRSDDTAVYFCTRYMWERVTGFFDFWGQGTMVTVSS
VL: DIQMTQSPSSVSASVGDRVTITCLASEDISDDLAWYQQKPGKAPKVLVYTTSSLQSGVPSRFSGSGSGTDFTLTISSLQPEDFATYFCQQTYKFPPTFGGGTKVEIKR
notes: also called non-fucosylated monoclonal anti-BCMA antibody
As for B1, in assay [9], the binding result is “binds”.

B2: APRIL (a proliferation-inducing ligand) (ligand, human, UniProt O75888 105-250, looked up)
chain: AVLTQKQKKQHSVLHLVPINATSKDDSDVTEVMWQPALRRGRGLQAQGYGVRIQDAGVYLLYSQVLFQDVTFTMGQVVSREGQGRQETLFRCIRSMPSHPDRAYNSCYSAGVFHLHQGDILSVIIPRARAKLNLSPHGTFLGFVKL
B2: the binding result in [10] is “binds”.

The values above are taken from patent publication US20230118517A1, “METHODS OF TREATING MULTIPLE MYELOMA” (Seagen Inc., priority 2020, published 2023).
